Data from patent publication US11161828B2, “Class of bisquaternary ammonium compound as well as the preparative method and the use thereof” (WEST CHINA HOSPITAL, SICHUAN UNIVERSITY, priority 2018, dated 2021).

Columns and labels:
human body = settings: cited from earlier work; for duration of muscle relaxation / action time: after single administration, clinical use
[1] = test system: Male New Zealand white rabbits; assay: Muscle relaxation test in anesthetized rabbits with neuromuscular transmission monitor (TOF); type: in vivo, rabbit; settings: for ED (2 x ED95): Oryctolagus cuniculus; for ED (2 x ED95) / 2 × ED95: intravenous injection, propofol general anesthesia; for Onset time / Recovery time: i.v. 2×ED95 dose; for Onset time: onset = TOF=0; for Recovery time: recovery of muscle relaxation = TOF=90%
Protocol: Male New Zealand white rabbits weighing 2-3.5 kg were used as experimental animals for muscle relaxation test. The specific procedures were as follows: propofol emulsion was used to induce and maintain general anesthesia (induction dose: 10 mg/kg; maintenance dose: […]). Tracheal intubation was carried out and respiratory support was used.

Compound	duration of muscle relaxation / action time (human body) [min]	ED (2 x ED95) [1] [mg/kg]	Onset time [1] [s]	Recovery time [1] [min]	2 × ED95 [1] [mg/kg]	ED (2 x ED95) ([1]; iv) [mg/kg]	action time (lasts for) (human body; in the human body) [min]
micuronium	15 to 20	–	–	–	–	–	–
C[N+](CCCCOC(=O)OCOC(=O)C[N+]1(Cc2ccc([N+](=O)[O-])cc2)CCCCC1)(Cc1ccc([N+](=O)[O-])cc1)Cc1ccc(Cl)cc1Cl (stereo not drawn) [Compound 21]	–	4	<40	5.1 ± 1.1	–	–	–
C[N+](CCOC(=O)OCOC(=O)CCC[N+]1(Cc2ccc(Br)cc2)CCCCC1)(Cc1ccc(Br)cc1)Cc1ccc(Br)cc1 [Compound 7]	–	1.2	<40	5.2 ± 2.1	–	–	–
C[N+](CCOC(=O)OCOC(=O)CCC[N+]1(Cc2ccc([N+](=O)[O-])cc2[N+](=O)[O-])CCCCC1)(Cc1ccc([N+](=O)[O-])cc1)Cc1ccc([N+](=O)[O-])cc1 [Compound 5]	–	0.4	<40	6.2 ± 1.4	–	–	–
CC(OC(=O)CCC[N+]1(Cc2ccc(Cl)cc2Cl)CCCCC1)OC(=O)OCC[N+](C)(Cc1ccc(Cl)cc1)Cc1ccc(Cl)c(Cl)c1 (stereo not drawn) [Compound 10]	–	–	<40	4.2 ± 0.9	0.7	–	–
C[N+](C)(C)CCOC(=O)CCC(=O)OCC[N+](C)(C)C [Succinylcholine, reference compound]	–	–	<40	12.3 ± 4.1	–	1.8	10
C[N+](CCOC(=O)OCOC(=O)CCC[N+]1(Cc2ccc([N+](=O)[O-])cc2)CCCCC1)(Cc1ccccc1)Cc1ccccc1 [Compound 19]	–	2.2	<40	7.1 ± 1.2	–	–	–
C[N+](CCOC(=O)OCOC(=O)CCC[N+]1(Cc2ccc([N+](=O)[O-])cc2)CCCCC1)(Cc1ccc([N+](=O)[O-])cc1)Cc1ccc([N+](=O)[O-])cc1 [Compound 12]	–	1.8	<40	8.1 ± 0.2	–	–	–
CC(OC(=O)CCC[N+]1(Cc2ccc(Cl)cc2Cl)CCCCC1)OC(=O)OCC[N+](C)(Cc1ccc(Cl)cc1)Cc1ccc(Cl)c(Cl)c1 (stereo not drawn) [Compound 9]	–	–	<40	4.2 ± 1.1	–	0.6	–
C[N+](CCOC(=O)OCOC(=O)CCC[N+]1(Cc2ccccc2)CCCCC1)(Cc1ccccc1)Cc1ccc([N+](=O)[O-])cc1 (stereo not drawn) [Compound 18]	–	1.9	<40	7.2 ± 2.7	–	–	–
CC(OC(=O)CCC[N+]1(Cc2ccc(Cl)cc2Cl)CCCCC1)OC(=O)OCC[N+](C)(Cc1ccc(Cl)cc1)Cc1ccc(Cl)c(Cl)c1 (stereo not drawn) [Compound 11]	–	–	<40	6.7 ± 2.6	0.5	–	–
C[N+](CCOC(=O)OCOC(=O)CCC[N+]1(Cc2ccc([N+](=O)[O-])cc2)CCCCC1)(Cc1ccccc1)Cc1ccc([N+](=O)[O-])cc1 (stereo not drawn) [Compound 13]	–	2.1	<40	7.9 ± 1.9	–	–	–
C[N+](CCOC(=O)OCOC(=O)CCC[N+]1(Cc2ccc(Br)c(Br)c2)CCCCC1)(Cc1ccc(Br)cc1)Cc1cccc(Cl)c1Cl (stereo not drawn) [Compound 3]	–	1.3	<40	3.8 ± 0.4	–	–	–
COc1ccc(C[N+](C)(CCCC(C)OC(=O)OC(C)OC(=O)C[N+]2(Cc3ccc(OC)c(OC)c3)CCCCC2)Cc2ccc(OC)c(OC)c2)cc1OC (stereo not drawn) [Compound 25]	–	–	<40	8.1 ± 2.9	–	1.4	–
COc1ccc(C[N+](C)(CCCCOC(=O)OC(C)OC(=O)C[N+]2(Cc3ccc(OC)c(OC)c3)CCCCC2)Cc2ccc(OC)c(OC)c2)cc1OC (stereo not drawn) [Compound 24]	–	–	<40	8.4 ± 1.9	–	1.4	–
C[N+](CCOC(=O)OCOC(=O)CCC[N+]1(Cc2c(F)c(F)c(F)c(F)c2F)CCCCC1)(Cc1c(F)c(F)c(F)c(F)c1F)Cc1c(F)c(F)c(F)c(F)c1F [Compound 6]	–	0.9	<40	5.1 ± 2.1	–	–	–
CC(OC(=O)CCC[N+]1(Cc2ccc([N+](=O)[O-])cc2)CCCCC1)OC(=O)OCC[N+](C)(Cc1ccccc1)Cc1ccc([N+](=O)[O-])cc1 (stereo not drawn) [Compound 14]	–	2.4	<40	4.2 ± 1.2	–	–	–
C[N+](CCOC(=O)OCOC(=O)CCC[N+]1(Cc2ccc(Cl)cc2Cl)CCCCC1)(Cc1ccc(Cl)cc1)Cc1ccc(Cl)c(Cl)c1 (stereo not drawn) [Compound 1]	–	0.5	<40	4.2 ± 1.1	–	–	–
COc1ccc(C[C@@H]2c3cc(OC)c(OC)cc3CC[N@+]2(C)CCC(=O)OCCCCCOC(=O)CC[N@@+]2(C)CCc3cc(OC)c(OC)cc3[C@H]2Cc2ccc(OC)c(OC)c2)cc1OC [Cisatracurium, reference compound]	–	0.08	>120	17.6 ± 3.2	–	–	–
C[N+](CCOC(=O)OCOC(=O)CCC[N+]1(Cc2ccccc2Br)CCCCC1)(Cc1ccccc1Br)Cc1ccccc1Br [Compound 8]	–	–	<40	7.2 ± 1.8	–	1.2	–
CC(=O)O[C@H]1C[C@@H]2CC[C@@H]3[C@H](CC[C@@]4(C)[C@H]3C[C@H]([N+]3(C)CCCCC3)[C@@H]4OC(C)=O)[C@@]2(C)C[C@@H]1[N+]1(C)CCCCC1 [pancuronium]	> 60	–	–	–	–	–	–
COc1ccc(C[N+](C)(Cc2ccc(OC)c(OC)c2)CC(C)OC(=O)OC(C)OC(=O)CCC[N+]2(Cc3ccc(OC)c(OC)c3)CCCCC2)cc1OC (stereo not drawn) [Compound 23]	–	–	<40	7.8 ± 2.4	–	1.2	–
C[N+](CCOC(=O)OCOC(=O)CCC[N+]1(Cc2ccc([N+](=O)[O-])cc2)CCCCC1)(Cc1ccc([N+](=O)[O-])cc1)Cc1ccc(Cl)c(Cl)c1 (stereo not drawn) [Compound 16]	–	2.2	<40	5.2 ± 1.1	–	–	–
CC(C[N+](C)(Cc1ccccc1)Cc1ccc([N+](=O)[O-])cc1)OC(=O)OCOC(=O)CCC[N+]1(Cc2ccc([N+](=O)[O-])cc2)CCCCC1 (stereo not drawn) [Compound 22]	–	–	<40	6.2 ± 1.4	–	1.2	–
C[N+](CCOC(=O)OCOC(=O)CCC[N+]1(Cc2ccc([N+](=O)[O-])cc2)CCCCC1)(Cc1ccc(Br)cc1)Cc1ccc([N+](=O)[O-])cc1 (stereo not drawn) [Compound 15]	–	1.9	<40	5.3 ± 2.1	–	–	–
C[N+](CCOC(=O)OCOC(=O)CCC[N+]1(Cc2c(F)cc(F)cc2F)CCCCC1)(Cc1ccc(F)cc1)Cc1c(F)cc(F)cc1F (stereo not drawn) [Compound 4]	–	0.4	<40	4.4 ± 0.5	–	–	–
C[N+](CCOC(=O)OCOC(=O)CCC[N+]1(Cc2ccccc2)CCCCC1)(Cc1ccccc1)Cc1ccccc1 [Compound 20]	–	2.4	<40	6.9 ± 2.5	–	–	–
